{
  "source": "patent US12446582B2",
  "about": "(priority 2018, dated 2025)",
  "test_system": "Fusarium pseudograminearum",
  "key": {"[1]": {"conditions": "average of 5 trials, compared to untreated T1"}, "[2]": {"conditions": "average of 5 trials, compared to untreated T1, listed as T2"}, "[3]": {"conditions": "average of 5 trials, untreated T1 = 100.00"}},
  "note": "“Also recorded” adds a separate entry of the source. Read-outs that look alike come from different tables or passages of the source.",
  "method": "5 wheat trial locations were selected across the main wheat growing areas of Australia. All five sites have a history of crown rot and high stubble load coming out of susceptible rotation crop. Soil samples were taken to confirm the pathogen pressure. The seeds were treated with a Rotostat Seed Treater with 800 ml slurry volume per 100 kg of seeds. Planting for the trials took place between 2 June and 14 June using a 6 to 8 row planter. The number of plants was counted 35-65 days after sowing on 2×5 m row. The number of wheat plants with white heads per plot was assessed at full ripe and recorded as % compared to the untreated plants which were taken as reference. Yield grain data was taken at the end of the season.",
  "data": [
    {"smiles": "O=C(NC1CCC1c1ccc(Cl)cc1Cl)c1cccnc1C(F)(F)F", "note": "(stereo not drawn) [Compound 1]", "values": [
      {"measurement": "Final emergence counts % increase compared to T1", "setting": "[1]", "value": 7.52, "unit": "%"},
      {"measurement": "Plot yields % increase compared to T1", "setting": "[1]", "value": 26, "unit": "%"},
      {"measurement": "White heads % reduction compared to T1", "setting": "[1]", "value": 34, "unit": "%"},
      {"measurement": "Plot yields % increase compared to T1", "setting": "[2]", "value": 26.32, "unit": "%"},
      {"measurement": "White heads % reduction compared to T1", "setting": "[2]", "value": 34.20, "unit": "%"},
      {"measurement": "White heads Average", "setting": "average of 5 trials, % compared to untreated T1 = 100.00", "value": 66.80, "unit": "%"},
      {"measurement": "Final emergence counts Average", "setting": "[3]", "value": 107.52},
      {"measurement": "Plot yields Average", "setting": "[3]", "value": 126.32},
      {"measurement": "White heads AR0T020", "setting": "trial AR0T020, Merredin, WA, variety Cobra, seed treatment, % compared to untreated T1 = 100.00, at full ripe", "value": 32.86, "unit": "%"},
      {"measurement": "Plot yields AR0T020", "setting": "trial AR0T020, Merredin, WA, variety Cobra, seed treatment, full plot harvest, untreated T1 = 100.00", "value": 127.83},
      {"measurement": "Final emergence counts AR0T020", "setting": "trial AR0T020, Merredin, WA, variety Cobra, seed treatment, untreated T1 = 100.00", "value": 101.87},
      {"measurement": "White heads AR0T021", "setting": "trial AR0T021, Tammin, WA, variety Cobra, seed treatment, % compared to untreated T1 = 100.00, at full ripe", "value": 28.45, "unit": "%"},
      {"measurement": "Plot yields AR0T021", "setting": "trial AR0T021, Tammin, WA, variety Cobra, seed treatment, full plot harvest, untreated T1 = 100.00", "value": 107.62},
      {"measurement": "Final emergence counts AR0T021", "setting": "trial AR0T021, Tammin, WA, variety Cobra, seed treatment, untreated T1 = 100.00", "value": 118.36},
      {"measurement": "White heads DL0T013", "setting": "trial DL0T013, Bunnaloo, NSW, variety Aurora (Durum), seed treatment, % compared to untreated T1 = 100.00, at full ripe", "value": 92.59, "unit": "%"},
      {"measurement": "Plot yields DL0T013", "setting": "trial DL0T013, Bunnaloo, NSW, variety Aurora (Durum), seed treatment, full plot harvest, untreated T1 = 100.00", "value": 116.90},
      {"measurement": "Final emergence counts DL0T013", "setting": "trial DL0T013, Bunnaloo, NSW, variety Aurora (Durum), seed treatment, untreated T1 = 100.00", "value": 100.80},
      {"measurement": "White heads GS0T007", "setting": "trial GS0T007, Redhill, SA, variety Saintly (Durum), seed treatment, % compared to untreated T1 = 100.00, at full ripe", "value": 74.52, "unit": "%"},
      {"measurement": "Plot yields GS0T007", "setting": "trial GS0T007, Redhill, SA, variety Saintly (Durum), seed treatment, full plot harvest, untreated T1 = 100.00", "value": 162.86},
      {"measurement": "Final emergence counts GS0T007", "setting": "trial GS0T007, Redhill, SA, variety Saintly (Durum), seed treatment, untreated T1 = 100.00", "value": 113.09},
      {"measurement": "White heads N10T669", "setting": "trial N10T669, Bellata, NSW, variety Lillaroi (Durum), seed treatment, % compared to untreated T1 = 100.00, at full ripe", "value": 105.57, "unit": "%"},
      {"measurement": "Plot yields N10T669", "setting": "trial N10T669, Bellata, NSW, variety Lillaroi (Durum), seed treatment, full plot harvest, untreated T1 = 100.00", "value": 116.41},
      {"measurement": "Final emergence counts N10T669", "setting": "trial N10T669, Bellata, NSW, variety Lillaroi (Durum), seed treatment, untreated T1 = 100.00", "value": 103.48},
      {"measurement": "yield increase compared to other commercial treatments (in words)", "setting": "wheat seed treatment, compared to commercial treatments T3-T5", "value": "more than double; also recorded: more than twice as much"}
    ]}
  ]
}
